One may read the Km as the concentration of substrate that gives half-maximal velocity.

Data on two compounds can be found in publication PMC3317823, “Identification and characterization of a novel thermostable pyrethroid-hydrolyzing enzyme isolated through metagenomic approach” (Microbial Cell Factories, 2012).

In this assay the target is Sys410 (uncultured bacterium, UniProt H9CDG2). The assay can be described thus: spectrophotometric p-nitrophenol release at […] nm, Michaelis-Menten fit. To be noted: pH 6.5, potassium phosphate 50 mM, 55°C, gum arabic and Triton X-100 in substrate solution.
Chain of Sys410 (H9CDG2 1-280 limits assumed): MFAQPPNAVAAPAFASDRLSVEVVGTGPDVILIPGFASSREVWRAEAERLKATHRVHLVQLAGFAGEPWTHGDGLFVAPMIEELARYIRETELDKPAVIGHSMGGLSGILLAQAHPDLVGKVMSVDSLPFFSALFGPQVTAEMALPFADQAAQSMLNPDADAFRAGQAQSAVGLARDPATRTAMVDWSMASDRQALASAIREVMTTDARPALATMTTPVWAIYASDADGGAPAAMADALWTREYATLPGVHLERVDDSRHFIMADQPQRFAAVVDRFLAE

Take `CCCCCCCC(=O)Oc1ccc([N+](=O)[O-])cc1` [C6, ρ-nitrophenyl caprylate]: under “paper labels caprylate as C6, chain length uncertain”, the Km is 33.2 ± 2.1 µM.

Take `CCCCCC(=O)Oc1ccc([N+](=O)[O-])cc1` [C8, ρ-nitrophenyl caproate]: the Km (paper labels caproate as C8, chain length uncertain) is 57.6 ± 1.9 µM.
